# According to ChEMBL document CHEMBL1201862, “PubChem BioAssay data set” (2004):
#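 How tested: cells in 96-well plates exposed to compound for 48 hours at five concentrations. GI50 marks 50% less growth.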 The source made the active and inactive calls. Cut-off read from the data, not from the text of the source: active = GI50 up to about 1.1 µM and inactive = higher.
# Key:
# Assay in all cases: NCI tumour cell line growth inhibition, 48 h
# [1] = test system: UACC-62
# [2] = test system: OVCAR-5
# [3] = test system: SK-OV-3
# [4] = test system: M14
# [5] = test system: UO-31
# [6] = test system: TK-10
# [7] = test system: ACHN
# [8] = test system: IGROV-1
# [9] = test system: UACC-257
# [10] = test system: HOP-62
# [11] = test system: OVCAR-8
# [12] = test system: NCI-H460
# [13] = test system: SR
# [14] = test system: SF-295
# [15] = test system: SF-268
# [16] = test system: SNB-19
# [17] = test system: Malme-3M
# [18] = test system: EKVX
# [19] = test system: HCT-116
# [20] = test system: KM12
SMILES,GI50 [1],GI50 [2],GI50 [3],GI50 [4],GI50 [5],GI50 [6],GI50 [7],GI50 [8],GI50 [9],GI50 [10],GI50 [11],GI50 [12],GI50 [13],GI50 [14],GI50 [15],GI50 [16],GI50 [17],GI50 [18],GI50 [19],GI50 [20]
CC(NC(CC12CC3CC(CC(C3)C1)C2)C(N)=O)c1ccccc1 (stereo unspecified),20.3 µM (inactive),17.5 µM (inactive),5.27 µM (inactive),21.1 µM (inactive),19.2 µM (inactive),26.6 µM (inactive),20.9 µM (inactive),39.7 µM (inactive),15.2 µM (inactive),28.1 µM (inactive),23.6 µM (inactive),17.4 µM (inactive),17.4 µM (inactive),13 µM (inactive),25 µM (inactive),28.9 µM (inactive),17.9 µM (inactive),23.4 µM (inactive),18.7 µM (inactive),
Cc1ccc2nnc(NS(=O)(=O)c3cc(C)c(Cl)cc3S)n2n1,> 100 µM (inactive),> 100 µM (inactive),> 100 µM (inactive),> 100 µM (inactive),68.5 µM (inactive),> 100 µM (inactive),> 100 µM (inactive),> 100 µM (inactive),> 100 µM (inactive),> 100 µM (inactive),> 100 µM (inactive),> 100 µM (inactive),> 100 µM (inactive),,> 100 µM (inactive),> 100 µM (inactive),> 100 µM (inactive),> 100 µM (inactive),> 100 µM (inactive),> 100 µM (inactive)
COC(=O)c1ccc2c(c1)CC1(C2)Cc2ccccc2C1=O (stereo unspecified),,72.3 µM (inactive),68.4 µM (inactive),18.7 µM (inactive),22.4 µM (inactive),31 µM (inactive),29.7 µM (inactive),33.3 µM (inactive),15.1 µM (inactive),38.5 µM (inactive),38.5 µM (inactive),> 100 µM (inactive),22.2 µM (inactive),39.4 µM (inactive),35 µM (inactive),66.1 µM (inactive),20.8 µM (inactive),29.5 µM (inactive),23.8 µM (inactive),
COC1/C=C/C(C)C(C(C)C(OC)C(C)CCC(=O)C(C)C(CCC(=O)O)OC)OC(=O)/C=C/C=C(\C)CC(OC)CC2=CC(=O)O[C@@H](C(C)C(OC)CC(OC)/C=C/C(C)C(OC)C1)[C@H]2O (stereo partly specified),0.787 µM (active),> 5 µM (inactive),1.18 µM (inactive),0.63 µM (active),,1.65 µM (inactive),0.74 µM (active),0.177 µM (active),1.24 µM (inactive),0.631 µM (active),2.21 µM (inactive),0.43 µM (active),0.637 µM (active),0.859 µM (active),0.284 µM (active),0.679 µM (active),0.592 µM (active),2.22 µM (inactive),0.385 µM (active),2.19 µM (inactive)
Cc1cc(C#N)c(Nc2ccc(F)cc2[N+](=O)[O-])s1,> 100 µM (inactive),> 100 µM (inactive),> 100 µM (inactive),71.1 µM (inactive),> 100 µM (inactive),,83.8 µM (inactive),,> 100 µM (inactive),30.3 µM (inactive),> 100 µM (inactive),> 100 µM (inactive),> 100 µM (inactive),30.8 µM (inactive),25.5 µM (inactive),> 100 µM (inactive),70.6 µM (inactive),> 100 µM (inactive),> 100 µM (inactive),> 100 µM (inactive)
COc1ccc(Sc2ccccc2[N+](=O)[O-])cc1,7.87 µM (inactive),> 100 µM (inactive),39.1 µM (inactive),4.04 µM (inactive),23.4 µM (inactive),34.8 µM (inactive),,69.8 µM (inactive),36.9 µM (inactive),16.6 µM (inactive),30.8 µM (inactive),16.8 µM (inactive),17.1 µM (inactive),> 10 µM (inactive),72.8 µM (inactive),> 100 µM (inactive),13 µM (inactive),37 µM (inactive),7.64 µM (inactive),6.44 µM (inactive)
CN1Cc2ccccc2C2(COc3ccccc3C2=O)C1 (stereo unspecified),> 100 µM (inactive),> 100 µM (inactive),> 100 µM (inactive),> 100 µM (inactive),57.4 µM (inactive),> 100 µM (inactive),> 100 µM (inactive),28.7 µM (inactive),62.7 µM (inactive),> 100 µM (inactive),> 100 µM (inactive),> 100 µM (inactive),31.8 µM (inactive),> 100 µM (inactive),> 100 µM (inactive),> 100 µM (inactive),> 100 µM (inactive),> 100 µM (inactive),> 100 µM (inactive),
